Measured values: patent US11649228B2, “Zinc indicators for cellular imaging” (The Board of Regents of the University of Texas System, priority 2018, dated 2023)

Legend:
MIN-6 cells = assay: Correlation of ZIGIR-2 labeling with insulin immunofluorescence; format: cell-based, mouse; settings: wide-field microscopy
Description: Confocal imaging of ZIGIR-2 labeled MIN-6 cells appeared to be heterogenous, with numerous ZIGIR-2 positive puncta in some cells while few in others (FIG. 6B). The MIN-6 cell is a transformed β-cell line derived from a mouse insulinoma. […] To investigate how ZIGIR-2 staining correlates with the distribution of insulin granules, insulin immunofluorescence was performed on the same MIN-6 cells after ZIGIR-2 imaging. […] To further analyze MIN-6 cells that were differentially labeled with ZIGIR-2, and to address whether ZIGIR-2 staining correlated with other cellular organelles, MIN6 cells were separated into ZIGIR-2-High and ZIGIR-2-Low subsets based on ZIGIR-2 fluorescence intensity using fluorescence-activated cell sorting (FACS; FIG. 7E). The sorted cells were then compared by immunofluorescence using antibodies against insulin, NPC-1 (a marker protein of late endosome/lysosome; Patel et al., 1999 and Higgins et al., 1999), or GM130 (a Golgi marker protein; Nakamura et al., 1995). […]
To correlate the intensity of ZIGIR-2 labeling and cellular insulin content by imaging, MIN-6 cells were first labeled and seeded on a 35 mm MatTek glass dish with ZIGIR-2. Cells were then imaged on a wide field fluorescence microscope (Axiovert 200, Carl Zeiss) equipped with an EMCCD camera (iXon 897, Andor) through a 40× oil objective. […]

[1] = Photochemical characterization of ZIGIRs in vitro (absorption, emission, quantum yield); format: physicochemical; settings: for ε (extinction coefficient): in M-1·cm-1 (unit assumed); for ϕfl × ε (fluorescence brightness): in M^-1 cm^-1 (unit assumed)
Description: UV-Vis spectra were recorded in a 1-cm path quartz cell on a Shimadzu 2401 PC spectrometer. Fluorescence excitation and emission spectra were recorded on a Fluorolog 3 spectrometer (Jobin-Yvon Horiba, Edison, N.J.). Zinc titration was performed by adding ZIGIRs (0.5 μM final concentration) to buffered Zn^2+ solutions containing 100 mM HEPES (pH 7.4). Nitrilotriacetic acid (NTA, 10 mM) and varying concentrations of ZnSO4 (0-9 mM) were mixed to reach free Zn^2+ concentrations between 0.1 nM and 40 nM (Li et al., 2011). Zn^2+ concentrations above 40 nM were controlled by iminodiacetate (IDA, 10 mM) and varying amounts of ZnSO4 (0-9.7 mM) in 100 mM HEPES (pH 7.4; Sasaki et al., 2011). To determine Zn^2+ binding dissociation constants (Kd(Zn^2+)), the Zn^2+ titration data were fitted to the least square exponential equation (Prism 7). Fluorescence quantum yields of ZIGIRs at pH 7.5 were determined using rhodamine 6G as the reference (Φfl=0.94 in MeOH; Magde et al., 2002). An example in shown FIGS. 11A0B. To examine the pH sensitivity of ZIGIRs, the fluorescence emission spectra was recorded from pH 3-9.4 in either nominally Zn^2+-free solutions containing 5 mM iminodiacetate or in 25 μM ZnSO4 solutions. The pH was controlled with 10 mM pH buffers including chloroacetic acid (pH 3.1), acetate (pH 4.1 and 5.0), 2-morpholinoethanesulfonic acid (MES, pH 6.14), HEPES (pH 7.5) and N-cyclohexyl-2-aminoethanesulfonic acid (CHES, pH 9.4).

In the case of `CN(C)c1ccc2c(-c3ccc(NCCN(CCc4ccccn4)Cc4ccccn4)cc3C(=O)[O-])c3ccc(=[N+](C)C)cc-3oc2c1` [ZIGIR-2], the “Pearson's R value of cellular ZIGIR-2 intensity versus insulin immunofluorescence” value (MIN-6 cells) is reported as 0.79±0.05, the absorption maximum [1] is reported as “around 555 nm” and the emission maximum [1] is reported as about 580 nm. The “λabd^max” value ([1]; Zn^2+ bound) was 549 nm, the “λem^max” value ([1]; Zn^2+ bound) was 580 nm and the “ϕfl (fluorescence quantum yield)” value ([1]; Zn^2+ bound) was 0.26. The “ε (extinction coefficient)” value ([1]; Zn^2+ bound) was 93,600, the “ϕfl × ε (fluorescence brightness)” value ([1]; Zn^2+ bound) was 24,336 and the “λabd^max” value ([1]; Zn^2+ free) was 546 nm. The “λem^max” value ([1]; Zn^2+ free) was 572 nm, the “ϕfl (fluorescence quantum yield)” value ([1]; Zn^2+ free) was 0.008 and the “ε (extinction coefficient)” value ([1]; Zn^2+ free) was 88,400. The “ϕfl × ε (fluorescence brightness)” value ([1]; Zn^2+ free) was 707.
